Measurements as given in PMC7447632, “Highly functionalized β-lactams and 2-ketopiperazines as TRPM8 antagonists with antiallodynic activity” (Scientific Reports, 2020).
pIC50: −log10 of the molar value. Entries after “also recorded” stand apart in the source; their conditions may differ.

Experiments:
[1] = system: oxaliplatin-induced cold allodynia; assay: Oxaliplatin-induced cold allodynia in mice (acetone test); format: in vivo; settings: for Cold allodynia (cold-induced paw licking, acetone test): oxaliplatin-treated male mice
From the text: Several chemotherapeutic agents in first clinical line induce peripheral neuropathies (known as CIPN), affecting million patients worldwide and limiting the dose administered to them, as well as the quality of life of many survivors. In oxaliplatin CIPN, the increased sensitivity to cold has been correlated to an augmented expression of TRPM8 channels, among others[4]–[6],[57]. In good correlation, there are recent experimental evidences describing that TRPM8 antagonists are able to decrease oxaliplatin-induced allodynia and cold hypersensitivity[34],[58]. According to these discoveries, we decided to explore the effects of β-lactam 24a in an in vivo model of oxaliplatin CIPN, using acetone assay for monitoring cold allodynia. In male mice, the injection of oxaliplatin on days 1, 3 and 5 at a 6 mg/kg dose produces peripheral cold allodynia.
Figure 4 Effects of compound 24a on the oxaliplatin-induced cold allodynia (acetone test). Male mice were treated with oxaliplatin (6 mg/Kg, ip) or vehicle on days 1, 3 and 5. Then, compound 24a (1 µg/ipl, A or 3 µg/ipl, B) was administered to the oxaliplatin treated animals, and the time-course of cold allodynia was measured. Data are given ± SME (n = 5). **P < 0.05; ***P < 0.001; ****P < 0.0001.
Male C57-mice (≈30 g) (Harlam, Holland) were used for the study. All experiments were approved by the Institutional Animal and Ethical Committee of the Universidad Miguel Hernandez where experiments were conducted and they were in accordance with the guidelines of the Economic European Community and the Committee for Research and Ethical Issues of the International Association for the Study of Pain. All parts of the study concerning animal care were performed under the control of veterinarians.
As previously described, oxaliplatin (Tocris) was dissolved in water with gentle warming and was […] injected on days 1, 3 and 5 at a 6 mg/kg dose. The day 7 after administration, experiments were performed. Together with Oxaliplatin injection, saline and a 5% Mannitol solution were intraperitoneally injected to prevent kidney damage and dehydration. The compound 24a stock was prepared in DMSO (Sigma-Aldrich) and diluted in saline for injections. Compound at different doses (1 to 3 μg) was injected into the plantar surface (25 μL) of the right hind paw of mice. Cold chemical thermal sensitivity was assessed using acetone drop method. Mice were placed in a metal mesh cage and allowed to habituate for approximately 30 min in order to acclimatize them. […] Cold chemical sensitive reaction with respect to paw licking was recorded as a positive response (nociceptive pain response). The responses were measured for 20-s with a digital stopwatch. For each measurement, the paw was sampled twice and the mean was calculated. […]

[2] = system: MDA-MB-231 (breast adenocarcinoma); assay: SRB cytotoxicity assay, MDA-MB-231; format: cell-based; settings: at 10 µg/mL
rTRPM8 = target: T1, rTRPM8 (Rattus norvegicus, UniProt Q8R455); assay: Patch-clamp electrophysiology, whole cell, HEK293 cells expressing rTRPM8; format: cell-based; settings: for pIC50: Patch-clamp, holding potential -60 mV, read-out: IC50 TRPM8 current blockade; for Hill coefficient n: fit of concentration-response curve, -60 mV
T1 construct: expressed in transfected cells; host or cells: HEK293 (stably transfected)
From the text: The TRPM8 antagonist activity of the enantiopure β-lactams 24a and 29a was further confirmed electrophysiologically by Patch-clamp experiments, using the whole cell configuration in HEK293 cells expressing TRPM8 channels.
The dose–response curve for both compounds was obtained at a holding potential of -60 mV (Supplementary Fig. S4).
Figure 2 Compounds 24a and 29a block TRPM8-mediated responses evoked by menthol in rTRPM8-expressing HEK293 cells. (A, C). I–V curves obtained in HEK293 cells expressing TRPM8 and exposed to vehicle solution (Vehicle; black trace; A,C), 100 µM menthol (red trace; A,C), 100 µM menthol + 10 µM 24a (blue trace; A) or to 100 µM menthol + 10 µM compound 29a (blue trace; C) (B,D), Concentration − response curves for TRPM8 current blockade by compound 24a (B) or compound 29a (D) at a holding voltage of -60 mV. Peak current data were expressed as pA/pF (to facilitate comparison among cells of different size) and expressed as a function of antagonist concentrations. The solid lines represent fits of the experimental data to the following binding isotherm: y = max/(1 + x/EC50)n, where x is the drug concentration and n the Hill coefficient. The fitted values for n were 0.97 ± 0.05 or 0.98 ± 0.6 for compound 24a or 29a, respectively. Each point is the mean ± SD of 8 (for compound 24a) or 9 (for compound 29a) determinations, each obtained in different cells. TEXT PRINTED IN THE PICTURE: (B) 24a: IC50=1,4±1,1 μM | (D) 29a: IC50=0,8±1,2 μM
Electrophysiological recording was carried out 1–3 days after cells seeded. Membrane currents and voltages were recorded by patch clamp using the whole-cell configuration. For whole-cell recordings of HEK-rTRPM8 cells, pipette solution contained (in mM) 150 NaCl, 5 EGTA, 3 MgCl2 and 10 HEPES, adjusted to pH 7.2 with NaOH, and bath solution contained (in mM) 150 NaCl, 6 CsCl, 1.5 CaCl2, 1 MgCl2, 10 D-glucose and 10 HEPES, adjusted to pH 7.4 with NaOH. Data were sampled at 10 kHz (EPC10 amplifier with PatchMaster 2.53 software, HEKA Electronics, Lambrecht, Germany) and low-pass filtered at 3 kHz for analysis (PatchMaster 2.53 and GraphPad Prism 5, Graphpad Software, USA). The series resistance was < 10 MΩ and to minimize voltage errors was compensated to 60–80%. All measurements were performed at 24–25 °C. The TRPM8 response was quantified as the ratio P2/P1, being P2 the second menthol pulse in the presence of the vehicle or antagonist tested, and P1 refers to the first menthol pulse. This paradigm considers the extend of receptor desensitization as the P2/P1 obtained with the vehicle. Thus, the estimated IC50 values are corrected from receptor desensitization.

T1 sequence (Q8R455 whole entry): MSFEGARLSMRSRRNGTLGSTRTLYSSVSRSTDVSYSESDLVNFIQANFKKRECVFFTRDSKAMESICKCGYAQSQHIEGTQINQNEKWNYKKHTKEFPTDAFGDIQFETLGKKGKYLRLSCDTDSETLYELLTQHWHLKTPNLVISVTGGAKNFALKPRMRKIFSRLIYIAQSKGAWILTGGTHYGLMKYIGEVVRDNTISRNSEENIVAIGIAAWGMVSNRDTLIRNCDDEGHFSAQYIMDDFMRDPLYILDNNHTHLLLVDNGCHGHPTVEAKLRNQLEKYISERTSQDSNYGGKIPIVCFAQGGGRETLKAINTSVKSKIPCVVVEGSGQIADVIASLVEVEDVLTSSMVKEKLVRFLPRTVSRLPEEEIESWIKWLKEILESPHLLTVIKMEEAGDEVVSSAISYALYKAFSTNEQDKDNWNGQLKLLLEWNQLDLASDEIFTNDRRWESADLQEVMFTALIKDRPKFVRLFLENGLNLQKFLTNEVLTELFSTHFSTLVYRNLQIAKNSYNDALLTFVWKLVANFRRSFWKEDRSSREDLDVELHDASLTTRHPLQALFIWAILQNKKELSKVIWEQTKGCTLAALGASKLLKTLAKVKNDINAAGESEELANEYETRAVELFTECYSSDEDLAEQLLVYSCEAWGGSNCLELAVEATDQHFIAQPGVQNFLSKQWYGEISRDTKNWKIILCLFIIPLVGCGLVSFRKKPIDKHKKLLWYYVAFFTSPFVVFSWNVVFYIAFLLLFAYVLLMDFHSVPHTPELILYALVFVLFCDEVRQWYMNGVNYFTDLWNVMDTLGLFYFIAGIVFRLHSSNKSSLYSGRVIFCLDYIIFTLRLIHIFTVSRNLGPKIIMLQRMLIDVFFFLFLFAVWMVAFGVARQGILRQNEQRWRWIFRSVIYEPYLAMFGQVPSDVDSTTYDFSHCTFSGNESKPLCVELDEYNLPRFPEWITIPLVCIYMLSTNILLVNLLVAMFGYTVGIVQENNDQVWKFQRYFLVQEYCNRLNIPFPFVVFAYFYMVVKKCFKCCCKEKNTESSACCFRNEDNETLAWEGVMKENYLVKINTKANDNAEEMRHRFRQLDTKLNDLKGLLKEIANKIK

Row | Structure (SMILES) | Cold allodynia (cold-induced paw licking, acetone test) ([1]; 1 μg intraplantar) | Cold allodynia (cold-induced paw licking, acetone test) ([1]; 3 µg intraplantar) | Time of maximum antiallodynic activity ([1]; intraplantar, after administration) | Antiallodynic effect in oxaliplatin-induced peripheral neuropathy ([1]; mice, dose not stated) | Cytotoxic activity against MDA-MB-231 [2] | Effect on menthol-mediated TRPM8 activity (I-V curve) (rTRPM8; 10 µM compound, 100 µM menthol, +120 mV) | pIC50 (rTRPM8; 100 µM menthol) | Hill coefficient n (rTRPM8)
1 | C[C@@H]1C(=O)N(C[C@H](Cc2ccccc2)NC(=O)OCc2ccccc2)[C@]1(Cc1ccccc1)C(=O)OCc1ccccc1 [Compound 24a, 4S-Benzyl-4-benzyloxycarbonyl-3S-methyl-1-[(2′S-benzyloxycarbonylamino-3′-phenyl)prop-1′-yl]-2-oxoazetidine] | attenuates the cold-induced paw licking in a significant manner | clearly increased at 15 min, and firmly maintained up to 60 min | 30 to 60 min | significantly reduced cold allodynia; also recorded: significant antiallodynic effects | no activity | important reduction on the menthol-mediated TRPM8 activity | 5.85 | 0.97 ± 0.05
2 | C[C@@H]1C(=O)N(C[C@@H](Cc2ccccc2)NC(=O)OCc2ccccc2)[C@]1(Cc1ccccc1)C(=O)OCc1ccccc1 [Compound 29a, 4S-Benzyl-4-benzyloxycarbonyl-3S-methyl-1-[(2′R-benzyloxycarbonylamino-3′-phenyl)prop-1′-yl]-2-oxoazetidine] | – | – | – | – | – | – | 6.10 | 0.98 ± 0.6
